Data as given in US11773137B2, “Arid5a peptide inhibitors” (KING FAISAL UNIVERSITY, priority 2019, dated 2023).
Where no end group is shown, it is not given here.

Test system: polarized Th17 cells
Assay: IL-17 production by naïve CD4+ T cells cultured under Th17-polarizing conditions
Format: cell-based
Details: PIA at 15, 30 and 45 μM
Description: Naïve CD4^+ T cells were isolated from the spleen using MACS® CD4^+CD62L^+ isolation kit (Miltenyi Biotec). The isolated CD4^+CD62L^+ T cells were cultured in the presence of anti-CD3/CD28 dynabeads (Invitrogen), IL-6 (30 ng/mL; R&D Systems), transforming growth factor TGF-β1 (4 ng/mL; R&D Systems), anti-interferon IFN-γ and anti-IL-4 (10 μg/mL; Biolegend) for 72 h.
The intensities of Arid5a immunoblot bands and IL-17 concentrations are presented as mean±SD from at least three independent experiments produced similar results. The statistical significance between mean values was tested by one-way ANOVA. *p<0.05 was considered significant.
Arid5a plays an important role in the production of IL-17, a cytokine that plays pivotal roles in chronic inflammation and autoimmune diseases such as MS and rheumatoid arthritis, and cancer. Therefore, the effects of PIA (SEQ ID NO: 2) on IL-17 production by naïve CD4^+ cells cultured under Th17-polarizing conditions were examined. The CD4^+CD62L^+ T cells were cultured in the presence of anti-CD3/CD28 dynabeads, IL-6, TGF-β1, anti-IFN-γ and anti-IL-4.

With ACTVGGYE [PIA, ACTVGGYE] the cell viability was “no significant effects on cell viability”.
